Experiment [1] has as its target Recombinant human SYK (amino acids 342-635), GST-SYK kinase fusion protein (Homo sapiens (Human), UniProt P43405). Briefly: SYK kinase inhibition test (Kinase Glo luminescence). Type of experiment: biochemical. The procedure: The catalytic activity of the GST-SYK kinase fusion protein was determined using the Kinase Glo® Luminescence Kinase test (Promega; V6712). In this homogeneous test the amount of ATP remaining after the kinase reaction is quantified by a luciferin-luciferase reaction using luminescence. The luminescence signal obtained correlates with the amount of ATP still present and thus correlates inversely with the activity of the kinase.
The test compounds were dissolved in 100% DMSO at a concentration of 10 mM and diluted in DMSO to a concentration of 1 mM. Serial Dilution is done in 100% DMSO. All further dilutions of the substances were carried out with test buffer (25 mM HEPES pH7.5; 25 mM MgCl2; 5 mM MnCl2; 50 mM KCl; 0.2% HSA; 0.01% CHAPS; 100 μM Na3VO4; 0.5 mM DTT). Dilution steps and concentration range were adapted according to need. 7 μl aliquots of these dilutions were transferred into a 384-well Optiplate (Perkin Elmer, #6007290). GST-SYK was diluted to 12 nM in the test buffer and 5 μl of this dilution were used in the kinase test (final concentration of SYK=4 nM in a total volume of 15 μl). After 15 minutes incubation at room temperature 3 μl of a mixture of 750 nM ATP and 100 μg/ml poly (L-Glutamic acid L-Tyrosine 4:1), Fluka #81357) in test buffer were added to each well and the incubation was continued for a further 60 minutes at room temperature.
(§1) Positive controls are the reaction mixtures that contain no test substance; negative controls (blanks) are reaction mixtures that contain no kinase.
After 60 minutes, 10 μl Kinase-Glo® solution (Promega, Cat. # V6712) (heated to room temperature) were added to each well and incubation was continued for a further 15 minutes. The plates were read in Envision Luminescence Reader (Perkin-Elmer).
(§2) The output file of the reader is a csv file that contains the well number and measured relative light units (RLU). For data evaluation and calculation, the measurement of the negative control was set as 100% ctrl and the measurement of the positive control was set as 0% ctrl. Based on this values the % value for the measurement of each substance concentration was calculated using an Assay Explorer software (Accelrys). Normally, the % ctrl values calculated are between 0% and 100% values but may also occur outside these limits in individual cases based on variability or compound characteristics. The IC50-values were calculated from the % ctrl values using Assay Explorer software. Calculation: [y=(a−d)/(1+(x/c)^b)+d] a=low value, d=high value; x=conc M; c=IC50 M; b=hill; y=% ctrl.
Satisfying SYK inhibitory capacities are represented by an IC50(SYK)-Value measured by this assay of <10 nMol.
A general note: In Kinase-Glo more light means more ATP remaining.

Experiment [2] deals with Recombinant human Aurora B (amino acids 1-344) (Homo sapiens (Human), UniProt Q96GD4). Nature of the experiment: Aurora B kinase test (ADP Glo). Type of experiment: biochemical. The procedure: The activity of the Aurora B kinase protein was determined using the ADP Glo® Luminescence Kinase test (Promega; V9103X). In this homogeneous test the amount of ADP remaining after the kinase reaction is quantified by a luciferin-luciferase reaction using luminescence. The luminescence signal obtained correlates with the amount of ADP still present and thus correlates with the activity of the protein kinase.
The test compounds were dissolved in 100% DMSO at a concentration of 10 mM and diluted in DMSO to a concentration of 5 mM. Serial Dilution is done in 1:10 steps in 100% DMSO. All further dilutions of the substances were carried out with test buffer (50 mM Hepes, pH 7.5, 10 mM MgCl2, 1 mM EGTA, 60 μM Ultra Pure ATP, 0.01% Brij35, 0.1% BSA, 5 mM 8-Glycerophosphate) until a concentration was reached which was 2.5 times above the final test concentration (final concentration of the compounds: 50 μM to 0.005 nM). 4 μl aliquots of these dilutions were transferred into a 384-well Optiplate (Perkin Elmer, #6007290). His-Aurora B was diluted to 125 nM in the test buffer and 4 μl of this dilution were used in the kinase test (final concentration of Aurora B=50 nM in a total volume of 10 μl). After 15 minutes incubation at room temperature 2 μl of 250 μM substrate ([[…]]; University of Dundee) in test buffer were added to each well and the incubation was continued for a further 60 minutes at room temperature.
as §1
After 60 minutes, 10 μl ADP-Glo® solution (ADP-Glo Reagent #V912B Promega) (heated to room temperature) were added to each well and incubation was continued for a further 40. minutes. Then 20 μl Kinase detection mix (Detection Buffer #V913B Promega; Kinase Detection Substrate #V914B Promega) were added and incubated for 40 minutes at room temperature. The plates were read in Envision Luminescence Reader (Perkin-Elmer).
as §2, with “measured RLU.” for “measured relative light units (RLU).”, “as 0%” for “as 100%”, “as 100%” for “as 0%”, “concentration can be” for “concentration was”, “software (e.g. Accelrys).” for “software (Accelrys).”, “Calculation: [y=(a−d)/(1+(x/c)^b)+d],” for “Calculation: [y=(a−d)/(1+(x/c)^b)+d]”
Background: ADP-Glo turns the ADP formed in a reaction into a luminescent signal.

The mark [3] stands for this setting: read-out: SYK inhibition IC50-value (chapter 5.1).
[4] abbreviates: read-out: AURB inhibition IC50-value (chapter 5.3).
The mark [5] stands for this setting: read-out: IC50(SYK) in SYK-inhibition assay.

Read-outs that look alike come from different tables or passages of the source.

By IC50 is commonly meant the concentration at which inhibition is half-maximal.

Recombinant human Aurora B (amino acids 1-344), sequence (Q96GD4 whole entry, the tested form may be a part): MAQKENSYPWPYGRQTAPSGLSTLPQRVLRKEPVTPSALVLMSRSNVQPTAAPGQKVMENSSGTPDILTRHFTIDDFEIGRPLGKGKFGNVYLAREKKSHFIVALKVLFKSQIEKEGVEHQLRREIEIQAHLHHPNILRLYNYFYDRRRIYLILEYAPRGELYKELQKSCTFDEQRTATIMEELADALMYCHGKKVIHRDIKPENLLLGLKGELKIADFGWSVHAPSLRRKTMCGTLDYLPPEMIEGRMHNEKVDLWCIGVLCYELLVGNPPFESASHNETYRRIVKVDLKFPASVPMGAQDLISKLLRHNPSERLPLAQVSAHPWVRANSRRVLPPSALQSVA

As to `Cc1c2c(O[C@H](C)[C@H]3CNC(=O)C3)cc(-c3cnn(C(C)(C)C#N)c3)cc2nn1C` [Example 17, 2-(4-{2,3-Dimethyl-4-[(R)-1-((R)-5-oxo-pyrrolidin-3-yl)-ethoxy]-2H-indazol-6-yl}-pyrazol-1-yl)-2-methyl-propionitrile], the half-maximal inhibitory concentration (IC50) in experiment [1] (setting [3]) is 0.0029 µM; in experiment [2] (setting [4]), 50 µM. In addition, the “selectivity ratio IC50(AURB)/IC50(SYK)” value in experiment [2] is listed as 17241.

Take `Cc1c2c(O[C@H](C)[C@H]3CNC(=O)C3)cc(-c3cnn(C(C)C)c3)cc2nn1C` [Example 18, (R)-4-{(R)-1-[6-(1-Isopropyl-1H-pyrazol-4-yl)-2,3-dimethyl-2H-indazol-4-yloxy]-ethyl}-pyrrolidin-2-one]: the IC50 in experiment [1] (setting [3]) amounted to 0.0011 µM; in experiment [2] (setting [4]), 20.2 µM. Further, the “selectivity ratio IC50(AURB)/IC50(SYK)” value in experiment [2] came to 18323.

Turning to `Cc1c2c(O[C@H](C)[C@H]3CNC(=O)C3)cc(-c3cnn(CC(C)C)c3)cc2nn1C` [Example 19, (R)-4-{(R)-1-[6-(1-Isobutyl-1H-pyrazol-4-yl)-2,3-dimethyl-2H-indazol-4-yloxy]-ethyl}-pyrrolidin-2-one], the IC50 in experiment [1] (setting [3]) was found to be 0.0018 µM; in experiment [2] (setting [4]), 23.8 µM. The “selectivity ratio IC50(AURB)/IC50(SYK)” value in experiment [2] was found to be 13212.

Regarding `Cc1c2c(O[C@H](C)[C@H]3CNC(=O)C3)cc(-c3cnn(C4CC4)c3)cc2nn1C` [Example 20, (R)-4-{(R)-1-[6-(1-Cyclopropyl-1H-pyrazol-4-yl)-2,3-dimethyl-2H-indazol-4-yloxy]-ethyl}-pyrrolidin-2-one], the IC50 in experiment [1] (setting [3]) was 0.0025 µM; in experiment [2] (setting [4]), 34.8 µM. In experiment [2], the “selectivity ratio IC50(AURB)/IC50(SYK)” value amounted to 13932.

Regarding `Cc1c2c(O[C@H](C)[C@H]3CNC(=O)C3)cc(-c3cnn(C4CCC4)c3)cc2nn1C` [Example 21, (R)-4-{(R)-1-[6-(1-Cyclobutyl-1H-pyrazol-4-yl)-2,3-dimethyl-2H-indazol-4-yloxy]-ethyl}-pyrrolidin-2-one], the values for the IC50 in experiment [1] (setting [3]) and in experiment [2] (setting [4]) were 0.0012 µM and 17.3 µM, respectively. Further, in experiment [2], the “selectivity ratio IC50(AURB)/IC50(SYK)” value is given as 14442.

As to `Cc1c2c(O[C@H](C)[C@H]3CNC(=O)C3)cc(-c3cnn(C4CCC(F)(F)C4)c3)cc2nn1C` (stereo partly drawn) [Example 22, (R)-4-((R)-1-{6-[1-(3,3-Difluoro-cyclopentyl)-1H-pyrazol-4-yl]-2,3-dimethyl-2H-indazol-4-yloxy}-ethyl)-pyrrolidin-2-one], the IC50 in experiment [1] (setting [3]) was found to be 0.0012 µM; in experiment [2] (setting [4]), 13.4 µM. Besides, the “selectivity ratio IC50(AURB)/IC50(SYK)” value in experiment [2] is given as 11207.

For the compound `C[C@@H](Oc1nc(-c2cnn(C(C)(C)C)c2)cc2ncn(C)c12)[C@H]1CNC(=O)C1` [example 3A.02, on page 196 of WO15017610, reference compound], the IC50 is under 0.01 µM in experiment [1] (setting [5]), 0.0019 µM in experiment [1] (setting [3]), 1.69 µM in experiment [2] (setting [4]) and 1.69 µM in experiment [2] (read-out: IC50(AURB)). The “selectivity ratio IC50(AURB)/IC50(SYK)” value in experiment [2] stood at 891.

Regarding `C[C@@H](Oc1cc(-c2cnn(C(C)(C)C)c2)cc2ncn(C)c12)[C@H]1CNC(=O)C1` [example 3B.22 on page 219 of WO15017610, reference compound], the IC50 is under 0.01 µM in experiment [1] (setting [5]), 0.0008 µM in experiment [1] (setting [3]), 0.771 µM in experiment [2] (setting [4]) and 0.771 µM in experiment [2] (read-out: IC50(AURB)). Also, the “selectivity ratio IC50(AURB)/IC50(SYK)” value in experiment [2] was found to be 964.

As to `Cc1cnn2cc(-c3cnn(C(C)(C)C)c3)nc(O[C@H](C)[C@H]3CNC(=O)C3)c12` [example 5.20 on page 506 of WO15017610, reference compound], the IC50 in experiment [1] (setting [5]) was under 0.01 µM; in experiment [1] (setting [3]) it was 0.0002 µM; in experiment [2] (setting [4]), 0.162 µM; in experiment [2] (read-out: IC50(AURB)) it was 0.162 µM. For the same compound, the “selectivity ratio IC50(AURB)/IC50(SYK)” value in experiment [2] was found to be 810.

`Cc1cnn2cc(-c3cnn(C(C)(C)C)c3)cc(O[C@H](C)[C@H]3CNC(=O)C3)c12` [example 6.09 on page 559 of WO15017610, reference compound]: the IC50 in experiment [1] (setting [5]) is under 0.01 µM; in experiment [1] (setting [3]), 0.0001 µM; in experiment [2] (setting [4]), 0.037 µM; in experiment [2] (read-out: IC50(AURB)) it was 0.037 µM. The “selectivity ratio IC50(AURB)/IC50(SYK)” value in experiment [2] was 370.

As for `Cc1cc2c(O[C@H](C)[C@H]3CNC(=O)C3)cc(-c3cnn(C(C)(C)C)c3)cn2n1` [example 6.60 on page 587 of WO15017610, reference compound], the IC50 was 0.0103 µM in experiment [1] (setting [5]), 0.0103 µM in experiment [1] (setting [3]), over 50 µM in experiment [2] (setting [4]) and over 50 µM in experiment [2] (read-out: IC50(AURB)). Also, in experiment [2], the “selectivity ratio IC50(AURB)/IC50(SYK)” value is recorded as over 4850.

The values above are taken from patent US10155751B2, “Pyrazolyl-substituted heteroaryls and their use as medicaments” (Boehringer Ingelheim International GmbH, priority 2015, dated 2018).
